Results from patent US12491170B2, “Stable treprostinil prodrugs” (United Therapeutics Corporation, priority 2020, dated 2025).

Assay: not given
Conditions: rat

SMILES	AUC
CCCCCC(CCC1C(O)CC2Cc3c(cccc3OCC(=O)O)CC21)OC (stereo not shown) [XLV]	0.83 µmol·min/L
CCCCCC(CCC1C(O)CC2Cc3c(cccc3OCC(=O)O)CC21)OC(=O)CCC(=O)N1CCOCC1 (stereo not shown) [XXXIII]	1.90 µmol·min/L

Assay: Stability in liver microsomes, human
Conditions: not given

SMILES	Trep Concentration 0 min	Trep Concentration 10 min	Trep Concentration 20 min	Trep Concentration 30 min	Trep Concentration 60 min
CCCCCC(CCC1C(O)CC2Cc3c(cccc3OCC(=O)O)CC21)OC (stereo not shown) [XLV]	0.00583 µM	0.104 µM	0.156 µM	0.21 µM	0.292 µM
CCCCCC(CCC1C(O)CC2Cc3c(cccc3OCC(=O)O)CC21)OC(=O)CCC(=O)N1CCOCC1 (stereo not shown) [XXXIII]	0 µM	0 µM	0 µM	0 µM	0 µM

Same assay, conditions: human

SMILES	AUC
CCCCCC(CCC1C(O)CC2Cc3c(cccc3OCC(=O)O)CC21)OC (stereo not shown) [XLV]	11.21 µmol·min/L
CCCCCC(CCC1C(O)CC2Cc3c(cccc3OCC(=O)O)CC21)OC(=O)CCC(=O)N1CCOCC1 (stereo not shown) [XXXIII]	0.00 µmol·min/L

Assay: Stability in cryopreserved hepatocytes, dog
Conditions: not given

SMILES	Trep Concentration (μM) 0 min	Trep Concentration (μM) 15 min	Trep Concentration (μM) 30 min	Trep Concentration (μM) 60 min	Trep Concentration (μM) 120 min
CCCCCC(CCC1C(O)CC2Cc3c(cccc3OCC(=O)O)CC21)OC (stereo not shown) [XLV]	0 µM	0 µM	0 µM	0 µM	0 µM
CCCCCC(CCC1C(O)CC2Cc3c(cccc3OCC(=O)O)CC21)OC(=O)CCC(=O)N1CCOCC1 (stereo not shown) [XXXIII]	0 µM	0.0287 µM	0.03796 µM	0.0584 µM	0.0754 µM

Same assay, conditions: dog

SMILES	AUC
CCCCCC(CCC1C(O)CC2Cc3c(cccc3OCC(=O)O)CC21)OC (stereo not shown) [XLV]	0.00 µmol·min/L
CCCCCC(CCC1C(O)CC2Cc3c(cccc3OCC(=O)O)CC21)OC(=O)CCC(=O)N1CCOCC1 (stereo not shown) [XXXIII]	6.18 µmol·min/L

Assay: Stability in human subcutaneous skin homogenate
Conditions: not given

SMILES	Trep Concentration 0 min	Trep Concentration 30 min	Trep Concentration 60 min	Trep Concentration 120 min
CCCCCC(CCC1C(O)CC2Cc3c(cccc3OCC(=O)O)CC21)OC (stereo not shown) [XLV]	0 µM	0 µM	0 µM	0 µM
CCCCCC(CCC1C(O)CC2Cc3c(cccc3OCC(=O)O)CC21)OC(=O)CCC(=O)N1CCOCC1 (stereo not shown) [XXXIII]	0 µM	0 µM	0 µM	0 µM

Same assay, conditions: human

SMILES	AUC
CCCCCC(CCC1C(O)CC2Cc3c(cccc3OCC(=O)O)CC21)OC (stereo not shown) [XLV]	0.00 µmol·min/L
CCCCCC(CCC1C(O)CC2Cc3c(cccc3OCC(=O)O)CC21)OC(=O)CCC(=O)N1CCOCC1 (stereo not shown) [XXXIII]	0.00 µmol·min/L

Assay: Stability in cryopreserved hepatocytes, rat
Conditions: not given

SMILES	Trep Concentration (μM) 0 min	Trep Concentration (μM) 15 min	Trep Concentration (μM) 30 min	Trep Concentration (μM) 60 min	Trep Concentration (μM) 120 min
CCCCCC(CCC1C(O)CC2Cc3c(cccc3OCC(=O)O)CC21)OC (stereo not shown) [XLV]	0 µM	0.00378 µM	0.00483 µM	0.00537 µM	0.00521 µM
CCCCCC(CCC1C(O)CC2Cc3c(cccc3OCC(=O)O)CC21)OC(=O)CCC(=O)N1CCOCC1 (stereo not shown) [XXXIII]	0 µM	0.0753 µM	0.132 µM	0.18 µM	0.238 µM

Same assay, conditions: rat

SMILES	AUC
CCCCCC(CCC1C(O)CC2Cc3c(cccc3OCC(=O)O)CC21)OC (stereo not shown) [XLV]	0.56 µmol·min/L
CCCCCC(CCC1C(O)CC2Cc3c(cccc3OCC(=O)O)CC21)OC(=O)CCC(=O)N1CCOCC1 (stereo not shown) [XXXIII]	19.34 µmol·min/L

Assay: not given
Conditions: dog

SMILES	AUC
CCCCCC(CCC1C(O)CC2Cc3c(cccc3OCC(=O)O)CC21)OC (stereo not shown) [XLV]	0.23 µmol·min/L
CCCCCC(CCC1C(O)CC2Cc3c(cccc3OCC(=O)O)CC21)OC(=O)CCC(=O)N1CCOCC1 (stereo not shown) [XXXIII]	5.10 µmol·min/L

Assay: Stability in liver microsomes, dog
Conditions: not given

SMILES	Trep Concentration 0 min	Trep Concentration 10 min	Trep Concentration 20 min	Trep Concentration 30 min	Trep Concentration 60 min
CCCCCC(CCC1C(O)CC2Cc3c(cccc3OCC(=O)O)CC21)OC (stereo not shown) [XLV]	0 µM	0 µM	0.00323 µM	0.00529 µM	0.00637 µM
CCCCCC(CCC1C(O)CC2Cc3c(cccc3OCC(=O)O)CC21)OC(=O)CCC(=O)N1CCOCC1 (stereo not shown) [XXXIII]	0.0247 µM	0.0494 µM	0.0751 µM	0.0888 µM	0.13 µM

Assay: Stability in liver microsomes, rat
Conditions: not given

SMILES	Trep Concentration 0 min	Trep Concentration 10 min	Trep Concentration 20 min	Trep Concentration 30 min	Trep Concentration 60 min
CCCCCC(CCC1C(O)CC2Cc3c(cccc3OCC(=O)O)CC21)OC (stereo not shown) [XLV]	0 µM	0.00607 µM	0.00992 µM	0.0162 µM	0.023 µM
CCCCCC(CCC1C(O)CC2Cc3c(cccc3OCC(=O)O)CC21)OC(=O)CCC(=O)N1CCOCC1 (stereo not shown) [XXXIII]	0.0107 µM	0.0193 µM	0.0291 µM	0.0305 µM	0.0498 µM

Assay: Stability in cryopreserved hepatocytes, human
Conditions: not given

SMILES	Trep Concentration (μM) 0 min	Trep Concentration (μM) 15 min	Trep Concentration (μM) 30 min	Trep Concentration (μM) 60 min	Trep Concentration (μM) 120 min
CCCCCC(CCC1C(O)CC2Cc3c(cccc3OCC(=O)O)CC21)OC (stereo not shown) [XLV]	0 µM	0.0417 µM	0.0533 µM	0.0724 µM	0.0734 µM
CCCCCC(CCC1C(O)CC2Cc3c(cccc3OCC(=O)O)CC21)OC(=O)CCC(=O)N1CCOCC1 (stereo not shown) [XXXIII]	0 µM	0.0192 µM	0.0265 µM	0.0464 µM	0.0728 µM

Same assay, conditions: human

SMILES	AUC
CCCCCC(CCC1C(O)CC2Cc3c(cccc3OCC(=O)O)CC21)OC (stereo not shown) [XLV]	7.29 µmol·min/L
CCCCCC(CCC1C(O)CC2Cc3c(cccc3OCC(=O)O)CC21)OC(=O)CCC(=O)N1CCOCC1 (stereo not shown) [XXXIII]	5.16 µmol·min/L
